Patent US20130122024A1, “NEW BINDER-DRUG CONJUGATES (ADCS) AND USE THEREOF” (Bayer Intellectual Property GmbH, priority 2011, published 2013)
Where “and” joins values, the source holds several entries; their conditions need not be identical. Equal entries are not always repeated. Structures can show the parent of a compound that is named as a salt. Square brackets hold non-standard residues; d marks the D form. Peptide text beside a SMILES is read from it. * marks the point of attachment. X2 = CC(C)[C@@H](C(=O)*)N(C)CCCCCCN1C(=O)CC(SC[C@H](N)C(=O)O)C1=O; X3 = CC(C)[C@@H](C(=O)*)N(C)CCOCCOCCOCCC(=O)NCCCC[C@H](N)C(=O)O; X4 = C[C@@H](O)[C@@H](C(=O)*)N(C)CCCCCC(=O)NCCCC[C@H](N)C(=O)O; X1 = CC(C)[C@@H](C(=O)*)N(C)CCCCCC(=O)NCCCC[C@H](N)C(=O)O; Dolaproine = CO[C@@H]([C@@H]1CCCN1)[C@@H](C)C(=O)O; Dil = CC[C@H](C)[C@H](NC)[C@@H](CC(=O)O)OC; Oxazinan2yl(1,2) = C1CCN(*)OC1

Key:
tubulin = assay: Fluorescence-based microtubule (tubulin) polymerization assay; type: biochemical
Description: Tubulin polymerization was investigated using the “Fluorescence-based Microtubule Polymerisation Assay Kit” from Cytoskeleton (Denver, Colo., USA; order number: BK011). With this assay, GTP is added to unpolymerized tubulin, allowing polymerization to take place spontaneously. The assay is based on the binding of the fluorophore 4′,6-di-amidino-2-phenylindole (DAPI) to tubulin. Free and bound DAPI can be differentiated on the basis of different emission spectra.
[…] In addition to the buffer control, paclitaxel, with a polymerization-increasing effect, and vinblastin, with a polymerization inhibiting effect, were run additionally as assay controls. Measurement was carried out using 96-well plates with a half base area. The kinetics of the tubulin polymerization were monitored in a Fluorimeter at 37° C. for 1 hour. The excitation wavelength was 355 nm, and emission was monitored at 460 nm. For the region of linear increase within the first 10 minutes, a calculation was made of the change in fluorescence per minute (ΔF/min), which represents the polymerization rate of the microtubuli. The potency of the test substances was quantified on the basis of their respective reduction of the polymerization rate.
The reduction in the tubulin polymerization rate occurs in dependence on the concentration of the test substance added.

Caco-2 cells = assay: Caco-2 flux assay for cell permeability; type: in vitro ADME; settings: 2 hours, B to A
Description: The cell permeability of a substance can be investigated by means of in vitro testing in a flux assay using Caco-2 cells [M. D. Troutman and D. R. Thakker, Pharm. Res. 20 (8), 1210-1224 (2003)]. For this purpose, the cells were cultured for 15-16 days on 24-well filter plates. For the determination of permeation, the respective working example was applied in a HEPES buffer to the cells either apically (A) or basally (B) and incubated for 2 hours. After 0 hours and after 2 hours, samples were taken from the cis and trans compartments. The samples were separated by HPLC (Agilent 1200, Böblingen, Germany) using reverse phase columns. The HPLC system was coupled via a Turbo Ion Spray Interface to a Triple Quadropol mass spectrometer API 4000 (Applied Biosystems Applera, Darmstadt, Germany). The permeability was evaluated on the basis of a Papp value, which was calculated using the formula published by Schwab et al. [D. Schwab et al., J. Med. Chem. 46, 1716-1725 (2003)].

[1] = concentration of toxophore 1 μM
[2] = concentration of toxophore 10 μM

Structure (SMILES)	Tubulin polymerization in the presence of toxophore in [%]. Tubulin polymerization rate at 1 μM MMAF set at 100% (tubulin; [1])	Tubulin polymerization in the presence of toxophore in [%]. Tubulin polymerization rate at 1 μM MMAF set at 100% (tubulin; [2])	Papp (B-A) (Caco-2 cells)	Tubulin polymerization in the presence of toxophore in [%]. Tubulin polymerization rate at 1 μM MMAF set at 100% (tubulin; concentration of toxophore 1 μM, trifluoroacetate)
CC[C@H](C)[C@@H]([C@@H](CC(=O)N1CCC[C@H]1[C@H](OC)[C@@H](C)C(=O)N[C@@H](Cc1c[nH]c2ccccc12)C(N)=O)OC)N(C)C(=O)[C@@H](NC(=O)[C@H](C(C)C)N(C)CCCC(=O)NNC(=O)CCCCCN1C(=O)CC(SC[C@H](N)C(=O)O)C1=O)C(C)C (stereo partly drawn) [Example 62, N-(4-{2-[6-(3-{[(2R)-2-Amino-2-carboxyethyl]sulphanyl}-2,5-dioxopyrrolidin-1-yl)hexanoyl]hydrazino}-4-oxobutyl)-N-methyl-L-valyl-N-[(3R,4S,5S)-1-{(2S)-2-[(1R,2R)-3-{[(2S)-1-amino-3-(1H-indol-3-yl)-1-oxopropan-2-yl]amino}-1-methoxy-2-methyl-3-oxopropyl]pyrrolidin-1-yl}-3-methoxy-5-methyl-1-oxoheptan-4-yl]-N-methyl-L-valinamide]	88%	25%	0.2 ×10⁻⁶ cm/s	
CC[C@H](C)[C@@H]([C@@H](CC(=O)N1CCC[C@H]1[C@H](OC)[C@@H](C)C(=O)N[C@@H](Cc1c[nH]c2ccccc12)C(=O)O)OC)N(C)C(=O)[C@@H](NC(=O)[C@H](C(C)C)N(C)CCCC(=O)NNC(=O)CCCCCN1C(=O)CC(SC[C@H](N)C(=O)O)C1=O)C(C)C (stereo partly drawn) [Example 63, N-(4-{2-[6-(3-{[(2R)-2-Amino-2-carboxyethyl]sulphanyl}-2,5-dioxopyrrolidin-1-yl)hexanoyl]hydrazino}-4-oxobutyl)-N-methyl-L-valyl-N-[(3R,4S,5S)-1-{(2S)-2-[(1R,2R)-3-{[(1S)-1-carboxy-2-(1H-indol-3-yl)ethyl]amino}-1-methoxy-2-methyl-3-oxopropyl]pyrrolidin-1-yl}-3-methoxy-5-methyl-1-oxoheptan-4-yl]-N-methyl-L-valinamide]		27%	0.16 ×10⁻⁶ cm/s	
CC[C@H](C)[C@@H]([C@@H](CC(=O)N1CCC[C@H]1[C@H](OC)[C@@H](C)C(=O)N[C@@H](Cc1c[nH]c2ccccc12)C(N)=O)OC)N(C)C(=O)[C@@H](NC(=O)[C@H](C(C)C)N(C)CCCCCCN1C(=O)CC(SC[C@H](N)C(=O)O)C1=O)C(C)C (stereo partly drawn) [Example 65, N-[6-(3-{[(2R)-2-Amino-2-carboxyethyl]sulphanyl}-2,5-dioxopyrrolidin-1-yl)hexyl]-N-methyl-L-valyl-N-[(3R,4S,5S)-1-{(2S)-2-[(1R,2R)-3-{[(2S)-1-amino-3-(1H-indol-3-yl)-1-oxopropan-2-yl]amino}-1-methoxy-2-methyl-3-oxopropyl]pyrrolidin-1-yl}-3-methoxy-5-methyl-1-oxoheptan-4-yl]-N-methyl-L-valinamide] (X2-V[Dil][Dolaproine]W-NH2)		64%	0.5 ×10⁻⁶ cm/s	
CC[C@H](C)[C@@H]([C@@H](CC(=O)N1CCC[C@H]1[C@H](OC)[C@@H](C)C(=O)N[C@@H](Cc1c[nH]c2ccccc12)C(=O)O)OC)N(C)C(=O)[C@@H](NC(=O)[C@H](C(C)C)N(C)CCCCCCN1C(=O)CC(SC[C@H](N)C(=O)O)C1=O)C(C)C (stereo partly drawn) [Example 66, N-[6-(3-{[(2R)-2-Amino-2-carboxyethyl]sulphanyl}-2,5-dioxopyrrolidin-1-yl)hexyl]-N-methyl-L-valyl-N-[(3R,4S,5S)-1-{(2S)-2-[(1R,2R)-3-{[(1S)-1-carboxy-2-(1H-indol-3-yl)ethyl]amino}-1-methoxy-2-methyl-3-oxopropyl]pyrrolidin-1-yl}-3-methoxy-5-methyl-1-oxoheptan-4-yl]-N-methyl-L-valinamide] (X2-V[Dil][Dolaproine]W-OH)		25%	0.1 ×10⁻⁶ cm/s	
CC[C@H](C)[C@@H]([C@@H](CC(=O)N1CCC[C@H]1[C@H](OC)[C@@H](C)C(=O)N[C@@H](Cc1c[nH]c2ccccc12)C(=O)N1CCCCO1)OC)N(C)C(=O)[C@@H](NC(=O)[C@H](C(C)C)N(C)CCCCCCN1C(=O)CC(SC[C@H](N)C(=O)O)C1=O)C(C)C (stereo partly drawn) [Example 67, N-[6-(3-{[(2R)-2-Amino-2-carboxyethyl]sulphanyl}-2,5-dioxopyrrolidin-1-yl)hexyl]-N-methyl-L-valyl-N-[(3R,4S,5S)-1-{(2S)-2-[(1R,2R)-3-{[(2S)-3-(1H-indol-3-yl)-1-(1,2-oxazinan-2-yl)-1-oxopropan-2-yl]amino}-1-methoxy-2-methyl-3-oxopropyl]pyrrolidin-1-yl}-3-methoxy-5-methyl-1-oxoheptan-4-yl]-N-methyl-L-valinamide] (X2-V[Dil][Dolaproine]W-{Oxazinan2yl(1,2)})		35%		
CC[C@H](C)[C@@H]([C@@H](CC(=O)N1CCC[C@H]1[C@H](OC)[C@@H](C)C(=O)N[C@@H](Cc1ccccc1)C(=O)NCc1ccccc1)OC)N(C)C(=O)[C@@H](NC(=O)[C@H](C(C)C)N(C)CCCC(=O)NNC(=O)CCCCCN1C(=O)CC(SC[C@H](N)C(=O)O)C1=O)C(C)C (stereo partly drawn) [Example 69, N-(4-{2-[6-(3-{[(2R)-2-Amino-2-carboxyethyl]sulphanyl}-2,5-dioxopyrrolidin-1-yl)hexanoyl]hydrazino}-4-oxobutyl)-N-methyl-L-valyl-N-[(3R,4S,5S)-1-{(2S)-2-[(1R,2R)-3-{[(2S)-1-(benzylamino)-1-oxo-3-phenylpropan-2-yl]amino}-1-methoxy-2-methyl-3-oxopropyl]pyrrolidin-1-yl}-3-methoxy-5-methyl-1-oxoheptan-4-yl]-N-methyl-L-valinamide]	110%			
CC[C@H](C)[C@@H]([C@@H](CC(=O)N1CCC[C@H]1[C@H](OC)[C@@H](C)C(=O)N[C@@H](Cc1c[nH]c2ccccc12)C(=O)N1CCCCO1)OC)N(C)C(=O)[C@@H](NC(=O)[C@H](C(C)C)N(C)CCOCCOCCOCCC(=O)NCCCC[C@H](N)C(=O)O)C(C)C [Example 107, N-[(18S)-18-Amino-18-carboxy-12-oxo-3,6,9-trioxa-13-azaoctadec-1-yl]-N-methyl-L-valyl-N-[(3R,4S,5S)-1-{(2S)-2-[(1R,2R)-3-{[(2S)-3-(1H-indol-3-yl)-1-(1,2-oxazinan-2-yl)-1-oxopropan-2-yl]amino}-1-methoxy-2-methyl-3-oxopropyl]pyrrolidin-1-yl}-3-methoxy-5-methyl-1-oxoheptan-4-yl]-N-methyl-L-valinamide trifluoroacetate] (X3-V[Dil][Dolaproine]W-{Oxazinan2yl(1,2)})				60% and 78%
CC[C@H](C)[C@@H]([C@@H](CC(=O)N1CCC[C@H]1[C@H](OC)[C@@H](C)C(=O)N[C@@H](Cc1c[nH]c2ccccc12)C(=O)N1CCCCO1)OC)N(C)C(=O)[C@@H](NC(=O)[C@H]([C@@H](C)O)N(C)CCCCCC(=O)NCCCC[C@H](N)C(=O)O)C(C)C [Example 116, N-(6-{[(5S)-5-Amino-5-carboxypentyl]amino}-6-oxohexyl)-N-methyl-L-threonyl-N-[(3R,4S,5S)-1-{(2S)-2-[(1R,2R)-3-{[(2S)-3-(1H-indol-3-yl)-1-(1,2-oxazinan-2-yl)-1-oxopropan-2-yl]amino}-1-methoxy-2-methyl-3-oxopropyl]pyrrolidin-1-yl}-3-methoxy-5-methyl-1-oxoheptan-4-yl]-N-methyl-L-valinamide trifluoroacetate] (X4-V[Dil][Dolaproine]W-{Oxazinan2yl(1,2)})			0.18 ×10⁻⁶ cm/s	
CC[C@H](C)[C@@H]([C@@H](CC(=O)N1CCC[C@H]1[C@H](OC)[C@@H](C)C(=O)N[C@@H](Cc1ccc(O)cc1)C(=O)O)OC)N(C)C(=O)[C@@H](NC(=O)[C@H](C(C)C)N(C)CCCCCC(=O)NCCCC[C@H](N)C(=O)O)C(C)C [Example 118, N-(6-{[(5S)-5-Amino-5-carboxypentyl]amino}-6-oxohexyl)-N-methyl-L-valyl-N-[(3R,4S,5S)-1-{(2S)-2-[(1R,2R)-3-{[(1S)-1-carboxy-2-(4-hydroxyphenyl)ethyl]amino}-1-methoxy-2-methyl-3-oxopropyl]pyrrolidin-1-yl}-3-methoxy-5-methyl-1-oxoheptan-4-yl]-N-methyl-L-valinamide trifluoroacetate] (X1-V[Dil][Dolaproine]Y-OH)	90%	17%		
